Experimental data as given in patent US7196190B2, “Methods and compositions for screening for angiogenesis modulating compounds” (Xenogen Corporation, priority 1999, dated 2007).

System: VEGFR-2 promoter
Test: In vivo bioluminescence imaging of female VEGFR2 transgenic mouse during estrus
Conditions: subcutaneous 30mg/kg/day for 16 days, female VEGFR2 transgenic F1 mouse (founder KA); before treatment signal high for a maximum of 3–5 days
Text: Two female VEGFR2 transgenic F1 mice from founder KA (See Example 7 above) were subjected to in vivo imaging of bioluminescence both dorsally and ventrally over a 16 day period according to the methods described in U.S. Pat. No. 5,650,135 to Contag et al. The results are presented graphically in FIGS. 18A–18D (FIGS. 18A and 18B, mouse 1 and 2 dorsal views, respectively, and FIGS. 18C and 18D, mouse 1 and 2 ventral views, respectively). […] In general, higher levels of luminescence were detectable ventrally as compared to dorsally. The signals appeared to be localized in the ovary (dorsal view) and uterus (ventral view). Both ovaries were clearly visible in most of the dorsal views. The uterus, connecting tubes and ovaries were visible in some of the ventral views.
The effect of the known estrogen antagonist ICI 182 780 (Tocris Cookson Ltd. Bristol, UK) on gene expression mediated by the VEGFR-2 promoter was investigated using the methods described in the preceding example.
A mature female VEGFR2 transgenic F1 mouse from founder KA (See Example 7 above) was imaged daily for 16 days according to the methods described in U.S. Pat. No. 5,650,135 to Contag et al. The bioluminescence signal remained high for a maximum of from 3–5 days, dropping back to a basal level for the interim periods. […]

## C[C@]12CC[C@@H]3c4ccc(O)cc4C[C@@H](CCCCCCCCC[S+]([O-])CCCC(F)(F)C(F)(F)F)[C@H]3[C@@H]1CC[C@@H]2O (stereo partly shown) [ICI 182 780]
  time the uterine bioluminescence signal remained high before dropping back to basal level: 9 days
